Experimental data reported in patent US12252524B2, “GIP/GLP1 co-agonist compounds” (Eli Lilly and Company, priority 2018, dated 2025).
Numbered stars: 1 amine (or outer) side, 2 acyl side, 3 side chain; on linkers, the order of the positions; unused ones are H or OH. Square brackets hold non-standard residues; d marks the D form. Side chains are listed from the residue outwards. Peptide text beside a SMILES is read from it. * marks the point of attachment. C20 diacid = O=C(O)CCCCCCCCCCCCCCCCCCC(=O)*; C18 diacid = O=C(O)CCCCCCCCCCCCCCCCC(=O)*; αMePhe(2-F) = C[C@](N)(Cc1ccccc1F)C(=O)O; γGlu = O=C(O)[C@H](CCC(=O)[*:2])N[*:1]; αMeF = C[C@](N)(Cc1ccccc1)C(=O)O; αMeL = CC(C)C[C@](C)(N)C(=O)O; AEEA = NCCOCCOCC(=O)O; Aib = CC(C)(N)C(=O)O

How the values were obtained:
human Gcg receptor = target: T1, human Gcg receptor (Homo sapiens, UniProt P47871); assay: [125I]-Glucagon binding (SPA), human Gcg receptor; conditions: read-out: hGLcgR Ki, nM (SEM, n)
T1 construct: expressed in transfected cells; crude membranes
T1 sequence (P47871 26-477): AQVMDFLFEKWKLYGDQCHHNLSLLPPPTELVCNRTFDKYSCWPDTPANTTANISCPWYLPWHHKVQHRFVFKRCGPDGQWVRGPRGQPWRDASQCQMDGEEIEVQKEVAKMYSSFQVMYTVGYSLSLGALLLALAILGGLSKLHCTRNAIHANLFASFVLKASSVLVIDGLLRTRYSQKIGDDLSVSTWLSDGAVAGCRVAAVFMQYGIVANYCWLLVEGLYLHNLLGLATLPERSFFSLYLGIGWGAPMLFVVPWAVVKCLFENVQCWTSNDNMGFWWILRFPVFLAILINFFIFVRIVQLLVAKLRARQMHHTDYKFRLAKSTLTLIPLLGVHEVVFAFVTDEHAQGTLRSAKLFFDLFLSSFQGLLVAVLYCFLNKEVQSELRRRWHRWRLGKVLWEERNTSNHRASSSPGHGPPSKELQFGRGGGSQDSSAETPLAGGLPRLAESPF
Outline: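 Scintillation counts are taken after membranes and WGA beads incubate and settle for 12 hours at room temperature. Buffer is 25 mM HEPES, pH 7.4, with CaCl2, MgCl2, bacitracin and Tween-20. Ki values, from four-parameter IC50 fits, are geometric means over independent days.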

human GIP receptor = target: T2, human GIP receptor (Homo sapiens, UniProt P48546); assay: [125I]-GIP binding (SPA), human GIP receptor; conditions: read-out: hGIPR Ki, nM (SEM, n)
T2 construct: expressed in transfected cells; crude membranes
T2 sequence (P48546 22-466): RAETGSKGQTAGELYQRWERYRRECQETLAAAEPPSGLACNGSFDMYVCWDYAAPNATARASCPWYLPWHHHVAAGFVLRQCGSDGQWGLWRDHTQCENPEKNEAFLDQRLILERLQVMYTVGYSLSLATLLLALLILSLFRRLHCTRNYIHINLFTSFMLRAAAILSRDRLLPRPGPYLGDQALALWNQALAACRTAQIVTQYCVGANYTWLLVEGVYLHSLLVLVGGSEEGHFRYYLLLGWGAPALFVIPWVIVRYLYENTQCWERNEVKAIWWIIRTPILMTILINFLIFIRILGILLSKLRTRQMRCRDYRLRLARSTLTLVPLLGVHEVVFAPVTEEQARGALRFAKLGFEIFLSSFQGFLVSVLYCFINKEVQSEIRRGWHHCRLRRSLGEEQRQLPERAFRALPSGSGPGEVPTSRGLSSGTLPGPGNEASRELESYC

[1] = target: human GLP-1 receptor (GLP-1R) (Homo sapiens, UniProt P43220); assay: cAMP pharmacological functional assay in presence of casein, hGLP-1R; format: cell-based; conditions: HEK293 cells expressing hGLP-1R, 0.1% Casein, geometric mean; read-out: hGLP1R cAMP Rel EC50 nM (SEM, n)
Chain of human GLP-1 receptor (GLP-1R) (P43220 24-463): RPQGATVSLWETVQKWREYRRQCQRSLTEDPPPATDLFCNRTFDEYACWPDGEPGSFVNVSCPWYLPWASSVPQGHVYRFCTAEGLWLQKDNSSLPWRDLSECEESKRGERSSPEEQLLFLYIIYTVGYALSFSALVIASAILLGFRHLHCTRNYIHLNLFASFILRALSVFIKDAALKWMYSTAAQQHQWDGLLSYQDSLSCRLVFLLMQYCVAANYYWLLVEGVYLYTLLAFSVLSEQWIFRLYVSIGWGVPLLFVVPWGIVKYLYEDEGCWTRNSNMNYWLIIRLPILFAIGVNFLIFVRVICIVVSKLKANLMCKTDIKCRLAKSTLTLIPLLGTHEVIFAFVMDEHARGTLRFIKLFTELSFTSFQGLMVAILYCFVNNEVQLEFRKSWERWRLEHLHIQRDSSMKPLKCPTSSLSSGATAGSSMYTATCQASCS

[2] = target: T3, gastric inhibitory peptide receptor (GIPR) (Homo sapiens, UniProt P48546); assay: cAMP pharmacological functional assay in presence of casein, hGIPR; format: cell-based; conditions: HEK293 cells expressing hGIPR, 0.1% Casein, geometric mean; read-out: hGIPR cAMP Rel EC50 nM (SEM, n)
T3 sequence (P48546 22-466): T2 sequence (P48546 22-466)

[3] = Body weight in diet-induced obese C57/B16 mice, 14-day treatment; format: in vivo, C57/B16 diet-induced obese (DIO) male mice; conditions: s.c., QD, DIO mice
Experimental: C57/B16 diet-induced obese (DIO) male mice (Taconic, Germantown, NY) weighing 41-50 g are used. Animals are individually housed in a temperature-controlled (24° C.) facility with a 12 hour light/dark photoperiod (lights off at 10:00 AM and lights on at 10:00 PM), with free access to food and water. After 2 week acclimatization to the facility, mice are randomized to treatment groups (n=6/group) based on body weight so each group has similar starting mean body weight.
Mice are treated with either vehicle (40 mM Tris-HCl at pH 8.0) or several peptides between the dose ranges of 0.03 nmol/kg to 10 nmol/kg. Treatments are subcutaneously administered to ad libitum fed DIO mice 30-90 minutes prior to the onset of the dark cycle daily (QD) for 14 days. During the course of the study, body weight and food intake are monitored daily. […]
[formula] “0” dose group represents the vehicle-treated mice during each study. All data are expressed as mean±SEM of 5-6 mice per group. Statistical analyses are assessed by one-way ANOVA followed by Dunnett's multiple comparison test to compare treatment groups to ‘0’, dose (vehicle). *Significant differences are identified at p<0.05. Body weight change after treatment with Example compounds after 15 days. “Δ from vehicle” refers to difference between body weight at day 15 between test and vehicle groups. “% n change” refers to percent decrease in body weight between days 1 and 15 in test groups. Percent decrease in body weight for animals receiving vehicle is recorded, and is less than about 100 in each study.

human GLP-1R = human GLP-1R (Homo sapiens, UniProt P43220); assay: [125I]-GLP-1 binding (SPA), human GLP-1 receptor; set-up: expressed in transfected cells; crude membranes; conditions: read-out: hGLP1R Ki, (nM) (SEM, n)
Chain of human GLP-1R (P43220 24-463): as above
Outline: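 Crude-membrane binding assay; one membrane prep included 1 mM MgCl2 and 25 units/ml DNAse I during lysis. Assay buffer at pH 7.4 contains 0.1% (w/v) bacitracin and 0.003% (w/v) TWEEN-20. Ki is reported as geometric mean.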

in vitro = assay: in vitro
Experimental: The stability of peptides are compared in 1% rat small intestinal fluid (rSIF). The amount of intact peptide is measured for a sample peptide at 0, 3, 15, and 30 minutes to assess proteolytic stability. The amount of intact peptide for a sample peptide is measured in 90% pig small intestinal fluid (pSIF) at 0, 30, 45, and 60 minutes to assess the proteolytic stability.
Peptides are prepared at 0.4 mg/mL in 50 mM Tris pH8.0. […] The mixture is incubated at 37° C. at 150 rpm. Thirty μL of each sample are removed and placed into a new tube before the rSIF is added and at […]. At each time point, the reaction was quenched by 1% TFA in 50% ACN at 1:1. The samples are diluted 100 times using dilution buffer (1:1 of 1% TFA in 50% ACN: 50 mM Tris pH8) and ready for analysis using mass spectrometry (MS).
The data analysis is performed using MassLynx.

[4] = test system: CD8+ T cell depleted peripheral blood mononuclear cells; assay: CD4+ T cell assay for potential clinical immunogenicity; conditions: Examples 10 uM, KLH 0.33 μM, 7 days
Experimental: The purpose of this study is to determine the relative potential for clinical immunogenicity of a compound.
CD8+ T cell depleted peripheral blood mononuclear cells are prepared and labeled with Carboxyfluorescein Diacetate Succinimidyl Ester (CFSE, Invitrogen) from a cohort of 10 healthy donors. […] Cultures are incubated for 7 days at 37° C. with 5% CO2. On day 7, samples are analyzed by flow cytometry using High Throughput Sampler (HTS). Data is analyzed using FlowJo® Software (FlowJo, LLC, TreeStar).

[5] = rat, real gastrointestinal fluid or homogenate, pH 8

Molecule CC[C@H](C)[C@H](NC(=O)[C@H](CC(C)C)NC(=O)[C@H](Cc1ccc(O)cc1)NC(=O)[C@H](CCC(=O)O)NC(=O)[C@@H](NC(=O)[C@H](Cc1ccccc1)NC(=O)[C@H](CCC(=O)O)NC(=O)C(C)(C)NC(=O)[C@H](CCC(N)=O)NC(=O)[C@H](C)NC(=O)[C@H](CCCCNC(=O)COCCOCCNC(=O)COCCOCCNC(=O)CC[C@H](NC(=O)CCCCCCCCCCCCCCCCCCC(=O)O)C(=O)O)NC(=O)[C@H](CCCCN)NC(=O)[C@H](CC(=O)O)NC(=O)[C@H](CC(C)C)NC(=O)[C@](C)(CC(C)C)NC(=O)[C@@H](NC(=O)[C@H](CO)NC(=O)[C@H](Cc1ccc(O)cc1)NC(=O)[C@H](CC(=O)O)NC(=O)[C@H](CO)NC(=O)[C@@H](NC(=O)[C@](C)(Cc1ccccc1)NC(=O)[C@@H](NC(=O)CNC(=O)[C@H](CCC(=O)O)NC(=O)C(C)(C)NC(=O)[C@@H](N)Cc1ccc(O)cc1)[C@@H](C)O)[C@@H](C)O)[C@@H](C)CC)[C@@H](C)CC)C(=O)N[C@@H](CCC(=O)O)C(=O)NCC(=O)NCC(=O)N1CCC[C@H]1C(=O)N[C@@H](CO)C(=O)N[C@@H](CO)C(=O)NCC(N)=O [Example 123] (H-Y[Aib]EGT[αMeF]TSDYSI[αMeL]LDKK([AEEA-AEEA-γGlu-C20 diacid])AQ[Aib]EFIEYLIEGGPSSG-NH2) has a Ki (human Gcg receptor) of 80.1 nM, a Ki (human GIP receptor) of 0.0469 nM and an EC50 [1] of 0.0344 nM. For the same molecule, the EC50 [2] was 0.0423 nM, the “percent body weight after 14-day of treatment” value (from here on “percent body weight”) ([3]; dose 0.03 nmol/kg) was 94.7% and the “percent body weight” value ([3]; dose 0.1 nmol/kg) was 90.5%. The “percent body weight” value ([3]; dose 0.3 nmol/kg) was 86.5%, the “percent body weight” value ([3]; dose 1 nmol/kg) was 81.3% and the “percent body weight” value ([3]; dose 3 nmol/kg) was 75.1%. For the same molecule, the “percent body weight” value ([3]; dose 10 nmol/kg) was 68.6% and the Ki (human GLP-1R) was 1.31 nM.

In the case of CC[C@H](C)[C@H](NC(=O)[C@H](CC(C)C)NC(=O)[C@H](Cc1ccc(O)cc1)NC(=O)[C@H](CCC(=O)O)NC(=O)[C@@H](NC(=O)[C@H](Cc1ccccc1)NC(=O)[C@H](CCC(=O)O)NC(=O)C(C)(C)NC(=O)[C@H](CCC(N)=O)NC(=O)[C@H](C)NC(=O)[C@H](CCCCNC(=O)COCCOCCNC(=O)COCCOCCNC(=O)CC[C@H](NC(=O)CCCCCCCCCCCCCCCCC(=O)O)C(=O)O)NC(=O)[C@H](CCC(=O)O)NC(=O)[C@H](CC(=O)O)NC(=O)[C@H](CC(C)C)NC(=O)[C@](C)(CC(C)C)NC(=O)[C@@H](NC(=O)[C@H](CO)NC(=O)[C@H](Cc1ccc(O)cc1)NC(=O)[C@H](CC(=O)O)NC(=O)[C@H](CO)NC(=O)[C@@H](NC(=O)[C@](C)(Cc1ccccc1F)NC(=O)[C@@H](NC(=O)CNC(=O)[C@H](CCC(=O)O)NC(=O)C(C)(C)NC(=O)[C@@H](N)Cc1ccc(O)cc1)[C@@H](C)O)[C@@H](C)O)[C@@H](C)CC)[C@@H](C)CC)C(=O)N[C@@H](CCC(=O)O)C(=O)NCC(=O)NCC(N)=O [Example 104] (H-Y[Aib]EGT[αMePhe(2-F)]TSDYSI[αMeL]LDEK([AEEA-AEEA-γGlu-C18 diacid])AQ[Aib]EFIEYLIEGG-NH2), the Ki (human Gcg receptor) is reported as 123 nM, the Ki (human GIP receptor) is reported as 0.0565 nM and the EC50 [1] is reported as 0.0248 nM. The EC50 [2] was 0.0323 nM, the “percent body weight” value ([3]; dose 0.03 nmol/kg) was 94.0% and the “percent body weight” value ([3]; dose 0.1 nmol/kg) was 94.1%. The “percent body weight” value ([3]; dose 0.3 nmol/kg) was 89.0%, the “percent body weight” value ([3]; dose 1 nmol/kg) was 82.7% and the “percent body weight” value ([3]; dose 3 nmol/kg) was 70.8%. For the same molecule, the “percent body weight” value ([3]; dose 10 nmol/kg) was 71.3% and the Ki (human GLP-1R) was 3.91 nM.

Molecule CC[C@H](C)[C@H](NC(=O)[C@H](CC(C)C)NC(=O)[C@H](Cc1ccc(O)cc1)NC(=O)[C@H](CCC(=O)O)NC(=O)[C@@H](NC(=O)[C@H](Cc1ccccc1)NC(=O)[C@H](C)NC(=O)C(C)(C)NC(=O)[C@H](CCC(N)=O)NC(=O)[C@H](C)NC(=O)[C@H](CCCCNC(=O)COCCOCCNC(=O)COCCOCCNC(=O)CC[C@H](NC(=O)CCCCCCCCCCCCCCCCCCC(=O)O)C(=O)O)NC(=O)[C@H](CCCCN)NC(=O)[C@H](CC(=O)O)NC(=O)[C@H](CC(C)C)NC(=O)[C@](C)(CC(C)C)NC(=O)[C@@H](NC(=O)[C@H](CO)NC(=O)[C@H](Cc1ccc(O)cc1)NC(=O)[C@H](CC(=O)O)NC(=O)[C@H](CO)NC(=O)[C@@H](NC(=O)[C@](C)(Cc1ccccc1)NC(=O)[C@@H](NC(=O)CNC(=O)[C@H](CCC(=O)O)NC(=O)C(C)(C)NC(=O)[C@@H](N)Cc1ccc(O)cc1)[C@@H](C)O)[C@@H](C)O)[C@@H](C)CC)[C@@H](C)CC)C(=O)N[C@@H](CCC(=O)O)C(=O)NCC(=O)NCC(=O)N1CCC[C@H]1C(=O)N[C@@H](CO)C(=O)N[C@@H](CO)C(=O)NCC(=O)N[C@@H](C)C(=O)N1CCC[C@H]1C(=O)N1CCC[C@H]1C(=O)N1CCC[C@H]1C(=O)N[C@@H](CO)C(N)=O [Example 69] has a Ki (human Gcg receptor) of 22.1 nM, a Ki (human GIP receptor) of 0.03 nM and an EC50 [1] of 0.0844 nM. For the same molecule, the EC50 [2] was 0.0712 nM, the “percentage of peptide not cleaved using rSIF” value (in vitro) was 100% and the remaining at 0.05 h, 0.4 mg/mL (in vitro; [5]) was 2.2%. The remaining at 0.25 h, 0.4 mg/mL (in vitro; [5]) was 0%, the remaining at 1 h, 0.4 mg/mL (in vitro; [5]) was 0% and the Ki (human GLP-1R) was 1.22 nM.

With “keyhole limpet hemocyanin [KLH, reference compound]” the “% Donor Response (CD4+ T cell response)” value [4] was 100% and the “Median Response Strength in positive donors (CDI)” value [4] was 391 CDI.
